In patent US10689352B2, “Solid state forms of trisodium valsartan: sacubitril” (Teva Pharmaceuticals International GMBH, priority 2015, dated 2020):

Key:
[1] = characterized according to Carr RL, Chem Eng 1965
Protocol: Whole amount material was put in graduated cylinder. A graduated cylinder with the sample was attached to Erweka SVM tapped density tester and tapped with 1250 strikes. Volume of the powder is measured. Bulk density is measured as ratio between mass of sample (ms) and unsettled apparent volume (V0) of sample in graduated cylinder. Tap Density is measured as ratio between mass of sample (ms) and final tapped volume of sample (Vf). Compressibility index and Hausner ratio were calculated according to obtained results of bulk and tapped density.

[2] = Circularity (morphology) by image analysis, Morphologi G3; type: physicochemical; settings: agglomerates, sieved through 300 μm, volume basis; e.g. as prepared according to Example 19
Excerpt: As used herein, circularity refers to the ratio of the perimeter of a circle with the same area as the particle divided by the perimeter of the actual particle image. Circularity is preferably determined by measurement of the particles following sieving through a sieve having a pore size of 300 μm. The particles are preferably measured following analysis of photographs of the particles at an appropriate magnification (e.g. 2.5 to 5.0 times magnification). More particularly, the sample is analyzed using Morphologi G3 instrumentation. The collected data can be processed using image analysis. Circularity is a ratio of the perimeter of a circle with the same area as the particle divided by the perimeter of the actual particle image.
Sample was sieved through a sieve with pore size 300 μm. The sieved material was dispersed on the glass surface at 0.5 bar and then images were taken at 2.5-5.0× magnification using Morphologi G3 (Malvern). Collected data was processed using image analysis. Circularity is a ratio of the perimeter of a circle with the same area as the particle divided by the perimeter of the actual particle image.

[3] = Storage stability (chemical and polymorphic); type: physicochemical
Excerpt: A crystalline form according to Paragraph 2, which is characterized by an X-ray powder diffraction pattern having peaks at 5.8, 7.3, 12.9, 15.9, 16.5 and 18.6 degrees two theta±0.2 degrees two theta and also having any one, any two, any three or more additional peaks selected from: 4.3, 9.4, 10.0, 10.9 and 14.7 two theta±0.2 degrees two theta. • 4. A crystalline form according to Paragraph 2, which is characterized by the X-ray powder diffraction pattern having peaks at 7.3, 16.5, 9.4, 10.9 and 14.7 two theta±0.2 degrees two theta and also having any one, any two, any three or more additional peaks selected from: 4.3, 5.8, 10.0, 12.9, 15.9 and 18.6 two theta±0.2 degrees two theta and optionally further characterized by an FTIP spectrum as depicted in FIG. 6. • 5. A crystalline form according to Paragraph 1 or Paragraph 2, which is characterized by the X-ray powder diffraction pattern having peaks at 4.3, 5.8, 7.3, 9.4, 10.0, 10.9, 12.9, 14.7, 15.9, 16.5, and 18.6 two theta±0.2 degrees two theta±0.2 degrees two theta. • 6. A crystalline form according to Paragraph 5, which is further characterized by X-ray powder diffraction d-spacings at: 20.341, 15.261, 12.068, 9.397, 8.826, 8.092, 6.863, 6.024, 5.583, 5.353 and 4.773 Å±0.1 Å. • 7. A crystalline form according to any of Paragraphs 1, 2, 3 or 4, further characterized by an X-ray powder diffraction pattern having one, two, three, four five, or more than 5 additional peaks selected from: 4.3, 5.0, 5.5, 5.8, 7.3, 8.5, 8.9, 9.4, 10.0, 10.9, 11.6, 12.9, 13.7, 13.9, 14.7, 14.8, 15.1, 15.3, 15.9, 16.5, 17.3, 17.6, 18.6, 19.1, 19.5, 20.3, 21.2, 21.9 and 23.1 degrees two theta±0.2 degrees two theta. • 8. A crystalline form according to any of Paragraphs 1, 2, 3, 4, 5, 6 or 7, which is characterized by an X-ray powder diffraction pattern having peaks at: 4.3, 5.0, 5.5, 5.8, 7.3, 8.5, 8.9, 9.4, 10.0, 10.9, 11.6, 12.9, 13.7, 13.9, 14.7, 14.8, 15.1, 15.3, 15.9, 16.5, 17.3, 17.6, 18.6, 19.1, 19.5, 20.3, 21.2, 21.9 and 23.1 degrees two theta±0.2 degrees two theta. • 9. A crystalline form according to Paragraph 8, which is further characterized by the absence of any peak (defined as relative intensity I/Io of less than 1%) between any of two neighboring peaks. • 10. A crystalline form according to any of Paragraphs 1, 2, 3, 4, 5, 6, 7, 8 or 9, further characterized by an X-ray powder diffraction pattern as depicted in FIG. 1 or FIG. 14 and/or a solid state ^13C NMR as depicted in FIG. 5. • 11. A crystalline form according to any of Paragraphs 1, 2, 3, 4, 5, 6, 7, 8, 9 or 10, further characterized by a DSC as depicted in FIG. 2. • 12. A crystalline form according to any of Paragraphs 2-11 further characterized by a solid state ^13C NMR spectrum having peaks at 176.8, 161.9, 141.1, 139.5, 138.6, 137.2, 129.3, 128.7, 126.3, 124.9, 64.2, 60.6, 47.5, 46.1, 40.1, 39.0, 38.1, 34.3, 32.7, 29.8, 28.2, 22.4, 20.2, 17.8, 16.5, 13.7, 11.7 ppm±0.2 ppm. • 13. […] A crystalline form according to any of Paragraphs 1, 2, 3, 4, 5, 6, 7, 8, 9, 10, 11, 12, 13, 14 or 15, which is a hydrate, preferably wherein the crystalline form contains from 5.2 to 5.7 wt % water. • 17. A crystalline form according to any of Paragraphs 1, 2, 3, 4, 5, 6, 7, 8, 9, 10, 11, 12, 13, 14, 15 or 16, comprising agglomerates having spherical morphology, preferably wherein: at least 50%, at least 60%, at least 70%, at least 80% or at least 90% of the agglomerates have spherical morphology, preferably wherein the circularity of at least 50% (preferably: at least 60%, at least 70%, at least 80% or at least 90%) of the particles on a volume basis is: greater than or equal to about 0.85, about 0.86 to 1, about 0.88 to about 0.98, about 0.90 to about 0.96, about 0.92 to about 0.96. • 18. […] A process according to any of Paragraphs 18 or 19, wherein the solution in step (i) is prepared by heating, preferably to a temperature of about 80° C. to about 150° C., about 90° C. to about 130° C. • 21. […]

trisodium valsartan:sacubitril [Form II]
flow properties [1]: good-excellent | circularity (v0.5) [2]: greater than 0.85 | chemical and polymorphic stability ([3]; protected from moisture, stored at 25° C./60% RH): chemically and polymorphically stable | chemical and polymorphic stability ([3]; protected from moisture, stored at 40° C./75% RH): chemically and polymorphically stable | chemical and polymorphic stability ([3]; protected from moisture, stored at 50° C.): chemically and polymorphically stable | chemical and polymorphic stability ([3]; protected from moisture, stored at 50° C./80% RH): chemically and polymorphically stable | chemical and polymorphic stability ([3]; stored for 8 weeks at 25° C./60% RH): chemically and polymorphically stable | chemical and polymorphic stability ([3]; stored for 8 weeks at 50° C.): chemically and polymorphically stable
